# Source: patent EP2951180B1, “2,6,7,8 SUBSTITUTED PURINES AS HDM2 INHIBITORS” (Merck Sharp & Dohme Corp., priority 2013, dated 2014)
# Read-outs that look alike come from different tables or passages of the source.
# Target: T1, HDM2 (Homo sapiens, UniProt Q00987)
# T1 construct: Thioredoxin (N); made in house; host or cells: E. coli strain BL21(DE3)Rosetta
# Experiment: HDM2 FRET assay (inhibition of binding of FITC labeled p53-pocket peptide to HDM2)
# Conditions: for IC50: read-out: FRET IC50
# Description: Methods: An HDM2 FRET assay was developed to assess the compounds' inhibitory activity towards binding of p53 protein. […] Protein was purified using Ni-affinity chromatography, followed by size exclusion chromatography using Superdex 75 26/60 column. […] The HDM2 assay buffer contained 1x Phosphate Buffered Saline (Invitrogen, Cat#14190), 0.01% BSA (Jackson ImmunoResearch, Cat# 001-000-162), 0.01% Tween-20. In the 1X assay buffer recombinant HDM2 protein, peptide and Lumi4-Tb Cryptate-conjugate mouse anti-6xHis antibody (cisbio, Cat#Tb61HISTLB) were added and transferred to ProxiPlate PLUS (PerkinElmer, Cat#6008269), containing compounds so that final DMSO concentration is 0.1% . Final concentrations of reagents in the assay wells are 0.5 nM HDM2, 0.25nM anti HIS (Tb label) antibody and 3nM peptide. […] Ratio of em520/em495 was used to calculate %inhibition and to obtain IC50 with 4-parameter logistic equation.
# IC50 DETERMINATIONS: Dose-response curves were plotted from the inhibition data, from 10 point serial dilutions of inhibitory compounds. Concentration of compound was plotted against em520/Cem495 ratio signal. To generate IC50 values, the dose-response curves were fitted to a standard sigmoidal curve and IC50 values were derived by nonlinear regression analysis.
# [1] = 0.5 nM HDM2 (residues 17 to 125), 3nM peptide, two hour incubation at room temperature
# T1 sequence (Q00987 17-125): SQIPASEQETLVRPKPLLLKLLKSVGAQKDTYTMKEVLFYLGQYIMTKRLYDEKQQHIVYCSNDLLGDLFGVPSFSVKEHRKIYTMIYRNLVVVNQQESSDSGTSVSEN
structure (smiles),measurement,setting,value
"C[C@@H](Nc1nc(S(C)(=O)=O)nc2nc(N3CCCCC3c3ccccc3)n(C[C@H]3CC[C@H](C)CC3)c12)C1CCC1 (single isomer, unassigned) [Example 14.9]",inhibition at 1 µM,"read-out: % inh. at 1000 nM, at 1000 nM compound",46%
"C[C@@H](Nc1nc(S(C)(=O)=O)nc2nc(N3CCCCC3c3ccccc3)n(C[C@H]3CC[C@H](C)CC3)c12)C1CCC1 (single isomer, unassigned) [Example 14.10]",IC50,[1],109 nM
"C[C@H]1CC[C@H](Cn2c(N3CCCC4COCCC43)nc3nc(-c4noc(=O)[nH]4)nc(-c4cccc(Cl)c4)c32)CC1 (single isomer, unassigned) [Example 16.118, 3-{6-(3-chlorophenyl)-8-(hexahydro-2H-pyrano[4,3-b]pyridin-1(5H)-yl)-7-[(trans-4-methylcyclohexyl)methyl]-7H-purin-2-yl}-1,2,4-oxadiazol-5(4H)-one]",IC50,[1],22.2 nM
"CC([C@H]1CC[C@H](C)CC1)n1c(N2CCOC[C@H]2C)nc2nc(-c3noc(=O)[nH]3)nc(N[C@H](C)C3CCC3)c21 (single isomer, unassigned) [Example 18.12]",IC50,Table 18,2.82 nM
"CC([C@H]1CC[C@H](C)CC1)n1c(N2CCOC[C@H]2C)nc2nc(-c3noc(=O)[nH]3)nc(N[C@H](C)C3CCC3)c21 (single isomer, unassigned) [Example 18.13]",IC50,Table 18,2.27 nM
"CC([C@H]1CC[C@H](C)CC1)n1c(N2CCOC[C@H]2c2ccccc2)nc2nc(-c3n[nH]c(=O)o3)nc(-c3cncc(Cl)c3)c21 (single isomer, unassigned) [Example 18.14]",IC50,Table 18,0.62 nM
"CC([C@H]1CC[C@H](C)CC1)n1c(N2CCOC[C@H]2C)nc2nc(-c3n[nH]c(=O)o3)nc(-c3cccc(Cl)c3)c21 (single isomer, unassigned) [Example 18.35]",IC50,Table 18,5.04 nM
"CC([C@H]1CC[C@H](C)CC1)n1c(N2CCOC[C@H]2C)nc2nc(-c3n[nH]c(=O)o3)nc(-c3cccc(Cl)c3)c21 (single isomer, unassigned) [Example 18.36]",IC50,Table 18,8.87 nM
"CC([C@H]1CC[C@H](C)CC1)n1c(N2CCC[C@H]2CF)nc2nc(-c3noc(=O)[nH]3)nc(-c3cncc(Cl)c3)c21 (single isomer, unassigned) [Example 18.45]",IC50,Table 18,2.42 nM
"CC([C@H]1CC[C@H](C)CC1)n1c(N2CCC[C@H]2CF)nc2nc(-c3noc(=O)[nH]3)nc(-c3cncc(Cl)c3)c21 (single isomer, unassigned) [Example 18.46]",IC50,Table 18,5.49 nM
"CC([C@H]1CC[C@H](C)CC1)n1c(N2CCC[C@H]2CF)nc2nc(-c3n[nH]c(=O)o3)nc(-c3cncc(Cl)c3)c21 (single isomer, unassigned) [Example 18.47]",IC50,Table 18,5.14 nM
"CC([C@H]1CC[C@H](C)CC1)n1c(N2CCC[C@H]2CF)nc2nc(-c3n[nH]c(=O)o3)nc(-c3cncc(Cl)c3)c21 (single isomer, unassigned) [Example 18.48]",IC50,Table 18,8.12 nM
"CC[C@@H]1COCCN1c1nc2nc(-c3noc(=O)[nH]3)nc(-c3cccc(Cl)c3)c2n1C(C)[C@H]1CC[C@H](C)CC1 (single isomer, unassigned) [Example 18.50]",IC50,Table 18,7.04 nM
"CC[C@@H]1COCCN1c1nc2nc(-c3noc(=O)[nH]3)nc(-c3cccc(Cl)c3)c2n1C(C)[C@H]1CC[C@H](C)CC1 (single isomer, unassigned) [Example 18.51]",IC50,Table 18,10.5 nM
"C[C@@H](Nc1nc(C(=O)O)nc2nc(C3CCCCC3c3ccccc3)n(Cc3ccc(C(F)(F)F)cc3)c12)C1CCC1 (single isomer, unassigned) [Example 21.1]",IC50,Table 21,10.2 nM
"C[C@@H](Nc1nc(C(=O)O)nc2nc(C3CCCCC3c3ccccc3)n(Cc3ccc(C(F)(F)F)cc3)c12)C1CCC1 (single isomer, unassigned) [Example 21.2]",IC50,Table 21,2.36 nM
"C[C@@H](Nc1nc(C(=O)O)nc2nc(C3CCCC3c3ccccc3)n(Cc3ccc(C(F)(F)F)cc3)c12)C1CCC1 (single isomer, unassigned) [Example 21.5]",IC50,Table 21,26.5 nM
"C[C@@H](Nc1nc(C(=O)O)nc2nc(C3CCCC3c3ccccc3)n(Cc3ccc(C(F)(F)F)cc3)c12)C1CCC1 (single isomer, unassigned) [Example 21.6]",IC50,Table 21,1.36 nM
"C[C@@H](Nc1nc(C(=O)O)nc2nc(C3COCC3c3ccccc3)n(Cc3ccc(C(F)(F)F)cc3)c12)C1CCC1 (single isomer, unassigned) [Example 21.7]",IC50,Table 21,28.7 nM
"C[C@@H](Nc1nc(C(=O)O)nc2nc(C3COCC3c3ccccc3)n(Cc3ccc(C(F)(F)F)cc3)c12)C1CCC1 (single isomer, unassigned) [Example 21.8]",IC50,Table 21,3.8 nM
"CC(c1ccccc1)c1nc2nc(-c3noc(=O)[nH]3)nc(N[C@H](C)C3CCC3)c2n1C[C@H]1CC[C@H](C)CC1 (single isomer, unassigned) [Example 21.14]",IC50,Table 21,19.8 nM
"CC(c1ccccc1)c1nc2nc(-c3noc(=O)[nH]3)nc(N[C@H](C)C3CCC3)c2n1C[C@H]1CC[C@H](C)CC1 (single isomer, unassigned) [Example 21.15]",IC50,Table 21,2.04 nM
"C[C@@H](Nc1nc(-c2noc(=O)[nH]2)nc2nc(C3CCCCC3c3ccccc3)n(C[C@H]3CC[C@H](C)CC3)c12)C1CCC1 (single isomer, unassigned) [Example 21.25]",IC50,Table 21,28.9 nM
"C[C@@H](Nc1nc(-c2noc(=O)[nH]2)nc2nc(C3CCCCC3c3ccccc3)n(C[C@H]3CC[C@H](C)CC3)c12)C1CCC1 (single isomer, unassigned) [Example 21.26]",IC50,Table 21,21.6 nM
"CC(c1ccccc1F)c1nc2nc(-c3noc(=O)[nH]3)nc(N[C@H](C)C3CCC3)c2n1C[C@H]1CC[C@H](C)CC1 (single isomer, unassigned) [Example 21.35]",IC50,Table 21,2.03 nM
"CC(c1ccccc1F)c1nc2nc(-c3noc(=O)[nH]3)nc(N[C@H](C)C3CCC3)c2n1C[C@H]1CC[C@H](C)CC1 (single isomer, unassigned) [Example 21.36]",IC50,Table 21,43.1 nM
"COCC(c1ccccc1)c1nc2nc(-c3noc(=O)[nH]3)nc(N[C@H](C)C3CCC3)c2n1C[C@H]1CC[C@H](C)CC1 (single isomer, unassigned) [Example 21.41, 3-(6-{[(1R)-1-cyclobutylethyl]amino}-8-[(1R or S)-2-methoxy-1-phenylethyl]-7-[(trans-4-methylcyclohexyl)methyl]-7H-purin-2-yl)-1,2,4-oxadiazol-5(4H)-one]",IC50,Table 21,3.25 nM
"COCC(c1ccccc1)c1nc2nc(-c3noc(=O)[nH]3)nc(N[C@H](C)C3CCC3)c2n1C[C@H]1CC[C@H](C)CC1 (single isomer, unassigned) [Example 21.42, 3-(6-{[(1R)-1-cyclobutylethyl]amino}-8-[(1S or R)-2-methoxy-1-phenylethyl]-7-[(trans-4-methylcyclohexyl)methyl]-7H-purin-2-yl)-1,2,4-oxadiazol-5(4H)-one]",IC50,Table 21,3.41 nM
"C[C@@H](Nc1nc(-c2noc(=O)[nH]2)nc2nc(C(C)(O)c3ccccn3)n(C[C@H]3CC[C@H](C)CC3)c12)C1CCC1 (single isomer, unassigned) [Example 22.6]",IC50,Table 22,10.4 nM
"C[C@@H](Nc1nc(-c2noc(=O)[nH]2)nc2nc(C(C)(O)c3ccccn3)n(C[C@H]3CC[C@H](C)CC3)c12)C1CCC1 (single isomer, unassigned) [Example 22.7]",IC50,Table 22,19.9 nM
"C[C@@H](Nc1nc(-c2noc(=O)[nH]2)nc2nc(C(C)(O)C(F)(F)F)n(C[C@H]3CC[C@H](C)CC3)c12)C1CCC1 (single isomer, unassigned) [Example 22.12]",IC50,Table 22,26.7 nM
"C[C@@H](Nc1nc(-c2noc(=O)[nH]2)nc2nc(C(C)(O)C(F)(F)F)n(C[C@H]3CC[C@H](C)CC3)c12)C1CCC1 (single isomer, unassigned) [Example 22.13]",IC50,Table 22,5.84 nM
"CC(O)c1nc2nc(-c3noc(=O)[nH]3)nc(N[C@H](C)C3CCC3)c2n1C[C@H]1CC[C@H](C)CC1 (single isomer, unassigned) [Example 22.14]",IC50,Table 22,81.1 nM
"CC(O)c1nc2nc(-c3noc(=O)[nH]3)nc(N[C@H](C)C3CCC3)c2n1C[C@H]1CC[C@H](C)CC1 (single isomer, unassigned) [Example 22.15]",IC50,Table 22,45.1 nM
"COC(c1ccccc1)c1nc2nc(-c3noc(=O)[nH]3)nc(N[C@H](C)C3CCC3)c2n1C[C@H]1CC[C@H](C)CC1 (single isomer, unassigned) [Example 22.19, 3-(6-{[(1R)-1-cyclobutylethyl]amino}-8-[(R or S)-methoxy(phenyl)methyl]-7-[(trans-4-methylcyclohexyl)methyl]-7H-purin-2-yl)-1,2,4-oxadiazol-5(4H)-one]",IC50,Table 22,7.7 nM
"COC(c1ccccc1)c1nc2nc(-c3noc(=O)[nH]3)nc(N[C@H](C)C3CCC3)c2n1C[C@H]1CC[C@H](C)CC1 (single isomer, unassigned) [Example 22.20, 3-(6-{[(1R)-1-cyclobutylethyl]amino}-8-[(S or R)-methoxy(phenyl)methyl]-7-[(trans-4-methylcyclohexyl)methyl]-7H-purin-2-yl)-1,2,4-oxadiazol-5(4H)-one]",IC50,Table 22,1.5 nM
"C[C@@H](Nc1nc(-c2noc(=O)[nH]2)nc2nc(C(C)(O)c3ccccc3)n(C[C@H]3CC[C@H](C)CC3)c12)C1CCC1 (single isomer, unassigned) [Example 22.23]",IC50,Table 22,6.38 nM
